Columns and labels:
Assay in all cases: biochemical
Assay type in all cases: biochemical
382 unique human kinases [1] = biological target: T1, 382 unique human kinases (Homo sapiens, UniProt P48729); conditions: kinase CK1a1, compound 10 uM; for remaining activity at 10 µM: read-out: % Enzyme Activity (relative to DMSO controls)
T1 construct: purchased Reaction Biology (HotSpot contract assay)

382 unique human kinases [2] = biological target: T2, 382 unique human kinases (Homo sapiens, UniProt Q7L7X3); conditions: kinase TAOK1, compound 10 uM; for remaining activity at 10 µM: read-out: % Enzyme Activity (relative to DMSO controls)
T2 construct: purchased Reaction Biology (HotSpot contract assay)
T2 sequence (Q7L7X3 1-1001): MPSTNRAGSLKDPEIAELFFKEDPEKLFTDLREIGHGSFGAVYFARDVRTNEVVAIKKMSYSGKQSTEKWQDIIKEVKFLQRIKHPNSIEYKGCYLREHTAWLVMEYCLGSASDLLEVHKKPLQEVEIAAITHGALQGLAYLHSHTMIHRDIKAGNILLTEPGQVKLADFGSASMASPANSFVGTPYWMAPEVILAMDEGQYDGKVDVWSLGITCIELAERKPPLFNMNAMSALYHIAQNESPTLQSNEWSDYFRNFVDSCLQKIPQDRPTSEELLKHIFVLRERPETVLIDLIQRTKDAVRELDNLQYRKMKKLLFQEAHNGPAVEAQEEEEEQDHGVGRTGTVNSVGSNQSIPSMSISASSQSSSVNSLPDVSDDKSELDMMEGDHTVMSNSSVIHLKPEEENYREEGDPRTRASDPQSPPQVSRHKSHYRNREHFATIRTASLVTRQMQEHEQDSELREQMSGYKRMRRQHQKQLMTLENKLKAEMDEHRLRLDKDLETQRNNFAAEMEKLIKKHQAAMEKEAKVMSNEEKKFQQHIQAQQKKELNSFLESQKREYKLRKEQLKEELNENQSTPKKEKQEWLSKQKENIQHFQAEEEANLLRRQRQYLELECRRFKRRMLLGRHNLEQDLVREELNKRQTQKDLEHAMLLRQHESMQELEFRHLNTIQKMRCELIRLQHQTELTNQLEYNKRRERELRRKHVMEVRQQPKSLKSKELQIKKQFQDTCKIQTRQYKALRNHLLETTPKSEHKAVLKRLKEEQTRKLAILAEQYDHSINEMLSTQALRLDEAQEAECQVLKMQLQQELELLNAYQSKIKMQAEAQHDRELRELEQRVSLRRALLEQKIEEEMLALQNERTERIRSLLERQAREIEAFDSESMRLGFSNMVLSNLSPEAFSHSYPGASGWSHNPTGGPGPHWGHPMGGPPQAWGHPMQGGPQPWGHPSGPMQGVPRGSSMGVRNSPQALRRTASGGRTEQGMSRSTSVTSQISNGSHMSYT

382 unique human kinases [3] = biological target: T3, 382 unique human kinases (Homo sapiens, UniProt Q99986); conditions: VRK1, 10 uM; for remaining activity at 10 µM: read-out: % Enzyme Activity (relative to DMSO controls)
T3 construct: purchased Reaction Biology (HotSpot contract assay)
T3 sequence (Q99986 1-396): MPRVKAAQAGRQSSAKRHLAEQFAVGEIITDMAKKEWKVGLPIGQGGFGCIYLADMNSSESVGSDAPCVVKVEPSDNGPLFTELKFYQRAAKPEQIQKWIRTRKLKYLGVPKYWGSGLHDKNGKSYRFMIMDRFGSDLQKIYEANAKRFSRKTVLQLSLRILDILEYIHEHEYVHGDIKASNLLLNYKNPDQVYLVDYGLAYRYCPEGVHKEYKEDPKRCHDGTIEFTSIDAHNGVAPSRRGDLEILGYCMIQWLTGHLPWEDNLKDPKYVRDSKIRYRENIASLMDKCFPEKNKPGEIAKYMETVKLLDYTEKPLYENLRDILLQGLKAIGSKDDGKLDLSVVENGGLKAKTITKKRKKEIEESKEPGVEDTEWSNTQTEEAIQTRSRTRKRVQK

382 unique human kinases [4] = biological target: T4, 382 unique human kinases (Homo sapiens, UniProt Q9P286); conditions: PAK5, compound at 10 uM, duplicate values; for remaining activity at 10 µM: read-out: % Enzyme Activity (relative to DMSO controls)
T4 construct: purchased Reaction Biology (HotSpot contract assay)
T4 sequence (Q9P286 whole entry): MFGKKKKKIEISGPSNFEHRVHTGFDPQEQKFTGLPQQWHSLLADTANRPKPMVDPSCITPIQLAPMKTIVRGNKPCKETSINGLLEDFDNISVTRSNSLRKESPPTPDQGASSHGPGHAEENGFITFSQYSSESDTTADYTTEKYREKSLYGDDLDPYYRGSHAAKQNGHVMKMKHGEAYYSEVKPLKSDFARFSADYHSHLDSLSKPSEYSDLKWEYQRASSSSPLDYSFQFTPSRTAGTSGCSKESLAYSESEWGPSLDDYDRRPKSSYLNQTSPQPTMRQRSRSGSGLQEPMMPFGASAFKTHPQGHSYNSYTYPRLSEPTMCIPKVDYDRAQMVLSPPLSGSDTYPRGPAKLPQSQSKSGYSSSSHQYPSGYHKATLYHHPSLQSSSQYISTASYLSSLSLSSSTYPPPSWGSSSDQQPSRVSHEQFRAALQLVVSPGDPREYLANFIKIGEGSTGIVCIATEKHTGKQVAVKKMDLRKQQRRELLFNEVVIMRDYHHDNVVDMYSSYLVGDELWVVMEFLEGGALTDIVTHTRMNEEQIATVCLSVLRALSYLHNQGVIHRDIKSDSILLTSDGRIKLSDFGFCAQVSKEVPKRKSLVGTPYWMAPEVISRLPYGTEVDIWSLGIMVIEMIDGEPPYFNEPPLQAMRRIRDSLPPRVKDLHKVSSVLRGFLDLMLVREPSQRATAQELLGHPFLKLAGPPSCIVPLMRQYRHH

382 unique human kinases [5] = biological target: T5, 382 unique human kinases (Homo sapiens, UniProt P07332); conditions: FES/FPS, 10 uM; for remaining activity at 10 µM: read-out: % Enzyme Activity (relative to DMSO controls)
T5 construct: purchased Reaction Biology (HotSpot contract assay)
T5 sequence (P07332 whole entry): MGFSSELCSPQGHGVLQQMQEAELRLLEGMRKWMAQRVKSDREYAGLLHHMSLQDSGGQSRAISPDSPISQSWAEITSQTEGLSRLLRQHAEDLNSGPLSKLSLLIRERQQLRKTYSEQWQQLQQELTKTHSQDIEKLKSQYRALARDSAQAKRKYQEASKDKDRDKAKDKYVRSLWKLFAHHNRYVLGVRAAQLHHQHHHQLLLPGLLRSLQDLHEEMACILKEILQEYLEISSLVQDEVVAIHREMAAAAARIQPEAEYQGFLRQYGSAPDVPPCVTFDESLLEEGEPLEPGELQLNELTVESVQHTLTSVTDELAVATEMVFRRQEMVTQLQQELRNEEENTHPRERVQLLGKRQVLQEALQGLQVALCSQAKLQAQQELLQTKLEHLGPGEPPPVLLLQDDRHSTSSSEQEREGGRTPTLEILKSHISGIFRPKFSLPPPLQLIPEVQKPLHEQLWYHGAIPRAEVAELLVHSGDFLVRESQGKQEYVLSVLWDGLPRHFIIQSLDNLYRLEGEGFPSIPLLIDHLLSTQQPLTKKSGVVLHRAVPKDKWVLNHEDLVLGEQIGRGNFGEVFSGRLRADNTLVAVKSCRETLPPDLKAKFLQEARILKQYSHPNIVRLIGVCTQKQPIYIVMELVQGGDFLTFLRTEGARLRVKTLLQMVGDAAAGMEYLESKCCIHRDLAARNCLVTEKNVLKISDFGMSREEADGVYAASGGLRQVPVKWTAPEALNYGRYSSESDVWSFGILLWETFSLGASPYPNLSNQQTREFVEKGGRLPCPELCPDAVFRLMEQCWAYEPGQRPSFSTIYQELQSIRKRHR

382 unique human kinases [6] = biological target: T6, 382 unique human kinases (Homo sapiens, UniProt P07949, M918T); conditions: RET (M918T), 10 uM; for remaining activity at 10 µM: read-out: % Enzyme Activity (relative to DMSO controls)
T6 construct: purchased Reaction Biology (HotSpot contract assay)
T6 sequence (P07949 29-1114 M918T): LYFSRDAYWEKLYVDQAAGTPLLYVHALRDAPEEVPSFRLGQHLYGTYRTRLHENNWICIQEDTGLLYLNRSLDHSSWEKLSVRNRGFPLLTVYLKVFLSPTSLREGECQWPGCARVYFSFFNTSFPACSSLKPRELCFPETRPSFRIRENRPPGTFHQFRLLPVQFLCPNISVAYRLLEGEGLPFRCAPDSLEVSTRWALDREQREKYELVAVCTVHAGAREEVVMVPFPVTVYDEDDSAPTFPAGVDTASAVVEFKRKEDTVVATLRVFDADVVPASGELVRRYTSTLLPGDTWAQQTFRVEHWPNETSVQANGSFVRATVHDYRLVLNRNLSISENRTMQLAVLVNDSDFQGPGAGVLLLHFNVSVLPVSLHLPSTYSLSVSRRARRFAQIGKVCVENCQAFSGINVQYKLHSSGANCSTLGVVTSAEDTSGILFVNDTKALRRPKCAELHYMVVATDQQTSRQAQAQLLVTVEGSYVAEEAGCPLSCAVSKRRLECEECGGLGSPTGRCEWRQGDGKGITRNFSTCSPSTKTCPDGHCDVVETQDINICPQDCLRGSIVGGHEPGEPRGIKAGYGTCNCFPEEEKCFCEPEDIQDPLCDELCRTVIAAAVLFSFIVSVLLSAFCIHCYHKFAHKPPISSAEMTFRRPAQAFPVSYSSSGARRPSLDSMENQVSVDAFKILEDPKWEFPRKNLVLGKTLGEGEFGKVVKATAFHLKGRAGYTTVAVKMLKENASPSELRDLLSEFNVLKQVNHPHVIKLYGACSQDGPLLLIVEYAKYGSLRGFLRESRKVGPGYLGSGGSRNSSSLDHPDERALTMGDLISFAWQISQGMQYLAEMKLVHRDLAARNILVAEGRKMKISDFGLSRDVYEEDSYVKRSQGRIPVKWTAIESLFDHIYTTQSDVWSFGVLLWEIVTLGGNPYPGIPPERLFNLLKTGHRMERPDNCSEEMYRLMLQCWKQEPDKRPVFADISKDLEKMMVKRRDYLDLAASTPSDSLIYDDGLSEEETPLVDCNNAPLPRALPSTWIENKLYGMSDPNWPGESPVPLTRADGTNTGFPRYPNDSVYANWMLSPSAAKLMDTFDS

382 unique human kinases [7] = biological target: T7, 382 unique human kinases (Homo sapiens, UniProt P15056, V600E); conditions: BRAF (V599E), 10 uM; for remaining activity at 10 µM: read-out: % Enzyme Activity (relative to DMSO controls)
T7 construct: purchased Reaction Biology (HotSpot contract assay)
T7 sequence (P15056 whole entry V600E): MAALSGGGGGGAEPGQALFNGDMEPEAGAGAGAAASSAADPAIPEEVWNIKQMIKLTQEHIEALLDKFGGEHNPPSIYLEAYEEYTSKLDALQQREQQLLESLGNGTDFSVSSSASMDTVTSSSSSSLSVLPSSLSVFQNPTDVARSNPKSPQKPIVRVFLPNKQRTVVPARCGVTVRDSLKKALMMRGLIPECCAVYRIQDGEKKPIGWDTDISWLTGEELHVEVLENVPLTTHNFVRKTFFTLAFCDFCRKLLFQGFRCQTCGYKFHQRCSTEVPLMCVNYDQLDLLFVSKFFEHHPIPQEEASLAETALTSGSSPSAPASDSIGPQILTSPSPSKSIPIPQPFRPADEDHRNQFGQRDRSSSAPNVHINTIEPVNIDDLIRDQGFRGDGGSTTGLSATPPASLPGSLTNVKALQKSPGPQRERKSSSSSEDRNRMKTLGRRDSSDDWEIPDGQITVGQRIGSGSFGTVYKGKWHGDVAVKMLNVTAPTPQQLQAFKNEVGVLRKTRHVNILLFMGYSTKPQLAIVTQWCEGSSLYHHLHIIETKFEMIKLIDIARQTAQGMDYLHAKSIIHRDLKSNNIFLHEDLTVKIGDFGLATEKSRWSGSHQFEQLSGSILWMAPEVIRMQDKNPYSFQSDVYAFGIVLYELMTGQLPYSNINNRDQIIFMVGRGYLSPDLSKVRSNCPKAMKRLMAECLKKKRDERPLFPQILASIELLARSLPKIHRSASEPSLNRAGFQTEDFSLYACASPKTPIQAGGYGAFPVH

382 unique human kinases [8] = biological target: T8, 382 unique human kinases (Homo sapiens, UniProt Q13153); conditions: PAK1, 10 uM; for remaining activity at 10 µM: read-out: % Enzyme Activity (relative to DMSO controls)
T8 construct: purchased Reaction Biology (HotSpot contract assay)
T8 sequence (Q13153 whole entry): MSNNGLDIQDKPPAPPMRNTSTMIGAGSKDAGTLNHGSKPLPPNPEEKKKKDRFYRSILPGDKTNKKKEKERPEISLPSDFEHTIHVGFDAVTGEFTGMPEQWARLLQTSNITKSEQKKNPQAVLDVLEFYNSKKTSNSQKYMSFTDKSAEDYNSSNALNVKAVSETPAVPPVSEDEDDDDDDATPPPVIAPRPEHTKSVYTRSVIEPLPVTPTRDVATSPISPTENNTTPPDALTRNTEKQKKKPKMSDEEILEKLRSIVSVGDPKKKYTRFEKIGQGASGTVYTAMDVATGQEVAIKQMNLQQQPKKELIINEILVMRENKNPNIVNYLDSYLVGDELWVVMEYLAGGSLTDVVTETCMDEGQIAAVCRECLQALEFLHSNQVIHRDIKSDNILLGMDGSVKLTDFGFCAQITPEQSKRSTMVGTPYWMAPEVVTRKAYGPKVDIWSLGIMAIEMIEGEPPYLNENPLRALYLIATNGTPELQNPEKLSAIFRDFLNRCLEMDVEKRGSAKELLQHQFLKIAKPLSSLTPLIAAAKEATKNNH

382 unique human kinases [9] = biological target: T9, 382 unique human kinases (Homo sapiens, UniProt Q8IYT8); conditions: ULK2, 10 uM; for remaining activity at 10 µM: read-out: % Enzyme Activity (relative to DMSO controls)
T9 construct: purchased Reaction Biology (HotSpot contract assay)
T9 sequence (Q8IYT8 1-1036): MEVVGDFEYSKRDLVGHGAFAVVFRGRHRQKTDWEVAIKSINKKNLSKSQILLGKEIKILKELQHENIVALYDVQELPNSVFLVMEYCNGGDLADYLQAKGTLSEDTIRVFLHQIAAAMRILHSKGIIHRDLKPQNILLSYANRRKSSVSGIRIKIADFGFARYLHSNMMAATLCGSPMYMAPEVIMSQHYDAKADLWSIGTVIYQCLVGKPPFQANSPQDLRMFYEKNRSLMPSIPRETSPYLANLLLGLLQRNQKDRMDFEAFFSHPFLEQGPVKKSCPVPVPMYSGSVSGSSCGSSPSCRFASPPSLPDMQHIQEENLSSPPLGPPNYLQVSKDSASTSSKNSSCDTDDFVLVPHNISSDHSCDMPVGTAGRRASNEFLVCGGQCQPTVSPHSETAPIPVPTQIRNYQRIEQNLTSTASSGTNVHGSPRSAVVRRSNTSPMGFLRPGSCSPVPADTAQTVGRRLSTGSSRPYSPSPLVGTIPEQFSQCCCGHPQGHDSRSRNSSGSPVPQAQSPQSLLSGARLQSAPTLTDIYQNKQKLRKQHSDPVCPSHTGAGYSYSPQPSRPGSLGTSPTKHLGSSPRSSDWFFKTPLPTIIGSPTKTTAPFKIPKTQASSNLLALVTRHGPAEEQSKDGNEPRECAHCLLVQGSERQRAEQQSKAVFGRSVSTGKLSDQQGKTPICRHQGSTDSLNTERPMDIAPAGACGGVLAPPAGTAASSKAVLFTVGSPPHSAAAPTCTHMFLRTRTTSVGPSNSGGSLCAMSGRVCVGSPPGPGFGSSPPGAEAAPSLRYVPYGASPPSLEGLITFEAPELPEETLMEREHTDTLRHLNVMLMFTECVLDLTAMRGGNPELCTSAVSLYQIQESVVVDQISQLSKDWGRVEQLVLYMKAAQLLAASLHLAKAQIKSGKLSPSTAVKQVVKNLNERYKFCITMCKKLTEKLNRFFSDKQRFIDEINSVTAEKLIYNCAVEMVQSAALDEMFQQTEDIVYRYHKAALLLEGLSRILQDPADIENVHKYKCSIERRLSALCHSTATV

T1 sequence (P48729 whole entry): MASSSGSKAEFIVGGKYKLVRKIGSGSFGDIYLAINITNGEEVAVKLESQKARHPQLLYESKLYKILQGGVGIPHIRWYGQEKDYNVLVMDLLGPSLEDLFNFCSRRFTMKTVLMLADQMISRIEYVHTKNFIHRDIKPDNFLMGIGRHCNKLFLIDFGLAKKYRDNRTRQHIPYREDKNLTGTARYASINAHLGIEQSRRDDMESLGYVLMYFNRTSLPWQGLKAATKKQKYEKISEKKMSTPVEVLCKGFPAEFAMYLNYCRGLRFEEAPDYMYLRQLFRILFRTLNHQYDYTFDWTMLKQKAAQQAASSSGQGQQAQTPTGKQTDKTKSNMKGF

SMILES: CC(C)c1cc(-c2n[nH]c(=O)n2-c2ccc3c(ccn3C)c2)c(O)cc1O [Ganetespib (STA9090)]
- remaining activity at 10 µM (382 unique human kinases [1]): 84.4%
- remaining activity at 10 µM (382 unique human kinases [2]): 88.8%
- remaining activity at 10 µM (382 unique human kinases [3]): 75.3%
- remaining activity at 10 µM (382 unique human kinases [4]): 119%

SMILES: CCNC(=O)c1noc(-c2cc(C(C)C)c(O)cc2O)c1-c1ccc(CN2CCOCC2)cc1 [Luminespib]
- % Enzyme Activity (relative to DMSO controls) (382 unique human kinases [5]): 99.33%
- remaining activity at 10 µM (382 unique human kinases [5]): 99.4%
- % Enzyme Activity (relative to DMSO controls) (382 unique human kinases [6]): 96.83%
- remaining activity at 10 µM (382 unique human kinases [6]): 97.5%
- % Enzyme Activity (relative to DMSO controls) (382 unique human kinases [7]): 98.13%
- remaining activity at 10 µM (382 unique human kinases [7]): 98.8%
- % Enzyme Activity (relative to DMSO controls) (382 unique human kinases [8]): 101.44%
- remaining activity at 10 µM (382 unique human kinases [8]): 102%
- % Enzyme Activity (relative to DMSO controls) (382 unique human kinases [9]): 104.48%
- remaining activity at 10 µM (382 unique human kinases [9]): 107%

SMILES: CCNC(=O)c1noc(-c2cc(C(C)C)c(O)cc2O)c1-c1ccc(CN2CCOCC2)cc1 [Luminespib (AUY-922)]
- % Enzyme Activity (relative to DMSO controls) (382 unique human kinases [1]): 96.26%
- remaining activity at 10 µM (382 unique human kinases [1]): 101%
- % Enzyme Activity (relative to DMSO controls) (382 unique human kinases [2]): 92.28%
- remaining activity at 10 µM (382 unique human kinases [2]): 95%
- % Enzyme Activity (relative to DMSO controls) (382 unique human kinases [3]): 84.23%
- remaining activity at 10 µM (382 unique human kinases [3]): 87%
- % Enzyme Activity (relative to DMSO controls) (382 unique human kinases [4]): 107.77%
- remaining activity at 10 µM (382 unique human kinases [4]): 108%

SMILES: CC(C)c1cc(-c2n[nH]c(=O)n2-c2ccc3c(ccn3C)c2)c(O)cc1O [Ganetespib]
- remaining activity at 10 µM (382 unique human kinases [5]): 98.6%
- remaining activity at 10 µM (382 unique human kinases [6]): 97.7%
- remaining activity at 10 µM (382 unique human kinases [7]): 110%
- remaining activity at 10 µM (382 unique human kinases [8]): 97.2%
- remaining activity at 10 µM (382 unique human kinases [9]): 107%

— publication PMC8550792, “Evolution of kinase polypharmacology across HSP90 drug discovery” (Cell Chemical Biology, 2021)
